{"source": "patent US20110039762A1", "about": "“TARGETED ANTIMICROBIAL MOIETIES” (C3 JIAN, INC., priority 2009, published 2011)", "key": {"[1]": {"test_system": "B. subtilis", "experiment": "Kill or inhibit growth/proliferation; morphology, biofilm and growth disruption (Tables 5, 6); for all read-outs here: test concentration or dose not given here", "type": "cell-based, Bacillus subtilis", "set-up": "key: A: Peptide aggregates; B: Less hyphal formation; Clumps; Diffuse clumps and small polyps; F: Diffuse growth; H: Thin; I: Growth inhibition; Microcolony formation; Rippled; Small polyps; Thick; W: Halo formation on top, microlonies on bottom"}, "[2]": {"test_system": "C. jejuni", "experiment": "Kill or inhibit growth/proliferation; morphology, biofilm and growth disruption (Tables 5, 6)", "type": "cell-based, Campylobacter jejuni", "set-up": "key: A: Peptide aggregates; B: Less hyphal formation; Clumps; Diffuse clumps and small polyps; F: Diffuse growth; H: Thin; I: Growth inhibition; Microcolony formation; Rippled; Small polyps; Thick; W: Halo formation on top, microlonies on bottom"}, "[3]": {"test_system": "microorganisms (e.g., bacteria, yeasts, fungi)", "experiment": "Targeting peptide binding to target microorganisms (Table 3)", "conditions": "preferably 1x PBS; for Target(s) (microorganisms bound by the targeting peptide): peptide binding in aqueous buffers varied by peptide solubility"}, "[4]": {"test_system": "microorganisms", "experiment": "Peptides having multiple activities (targeting/binding, antimicrobial, growth or phenotype altering)", "text": "In certain embodiments, peptides described herein can have multiple activities. Thus for example, a peptide can have both binding/targeting activity and antimicrobial activity. Such peptides can be used, e.g., in a chimeric construct, for any or all of these properties. Thus, for example, a peptide designated “B” in Table 8 can be used as a targeting peptide. If it is also designated G or M it can also be used for antimicrobial activity."}, "[5]": {"test_system": "S. epidermidis", "experiment": "Kill or inhibit growth/proliferation; morphology, biofilm and growth disruption (Tables 5, 6)", "type": "cell-based, Staphylococcus epidermidis", "set-up": "key: A: Peptide aggregates; B: Less hyphal formation; Clumps; Diffuse clumps and small polyps; F: Diffuse growth; H: Thin; I: Growth inhibition; Microcolony formation; Rippled; Small polyps; Thick; W: Halo formation on top, microlonies on bottom"}, "[6]": {"test_system": "MRSA", "experiment": "Kill or inhibit growth/proliferation; morphology, biofilm and growth disruption (Tables 5, 6)", "type": "cell-based, Methicillin-resistant Staphylococcus aureus", "set-up": "key: A: Peptide aggregates; B: Less hyphal formation; Clumps; Diffuse clumps and small polyps; F: Diffuse growth; H: Thin; I: Growth inhibition; Microcolony formation; Rippled; Small polyps; Thick; W: Halo formation on top, microlonies on bottom"}, "[7]": {"test_system": "S. pneumoniae", "experiment": "Kill or inhibit growth/proliferation; morphology, biofilm and growth disruption (Tables 5, 6)", "type": "cell-based, Streptococcus pneumoniae", "set-up": "key: A: Peptide aggregates; B: Less hyphal formation; Clumps; Diffuse clumps and small polyps; F: Diffuse growth; H: Thin; I: Growth inhibition; Microcolony formation; Rippled; Small polyps; Thick; W: Halo formation on top, microlonies on bottom"}, "[8]": {"conditions": "microorganism the targeting peptide binds, binding in aqueous buffers varied by peptide solubility"}, "[9]": {"conditions": "microorganism(s) the targeting peptide binds, binding in aqueous buffers depending on peptide solubility"}, "[10]": {"conditions": "microorganism(s) the targeting peptide binds, peptide binding conducted in aqueous buffers varied by peptide solubility"}}, "note": "“Also recorded” adds a separate entry of the source."}
{"substance": "PF-008: peptide having multiple activities (chain 1 MIEIGSIAYLNGGSKKYNHILNQENR; chain 2 MIEIGSIAYLNGGSKKYNHILNQENR; Peptide with targeting and/or antimicrobial activity)", "values": [{"measurement": "Organism, effect", "setting": "[1]", "result": "B. subtilis (D)"}, {"measurement": "Organism, effect", "setting": "[2]", "result": "C. jejuni (R)"}, {"measurement": "Target(s)", "setting": "[3]; [8]", "result": "S. epidermidis and M. luteus and MRSA and C. jejuni"}, {"measurement": "Activities", "setting": "[4]", "result": "G B"}]}
{"substance": "PF-069: peptide having multiple activities (FDPVPLKKDKSASKHSHKHNH; Peptide with targeting and/or antimicrobial activity)", "values": [{"measurement": "Organism, effect", "setting": "[1]", "result": "B. subtilis (D)"}, {"measurement": "Organism, effect", "setting": "[2]", "result": "C. jejuni (R)"}, {"measurement": "Target(s)", "setting": "[3]; [8]", "result": "E. faecalis; also recorded: C. jejuni"}, {"measurement": "Activities", "setting": "[4]", "result": "G B"}]}
{"substance": "PF-292: peptide having multiple activities (SFVSTTVRLIFEESKRYKF; Peptide with targeting and/or antimicrobial activity)", "values": [{"measurement": "Organism, effect", "setting": "[1]", "result": "B. subtilis (C)"}, {"measurement": "Organism, effect", "setting": "[5]", "result": "S. epidermidis (C)"}, {"measurement": "Target(s)", "setting": "[3]; [9]", "result": "S. epidermidis; also recorded: B. subtilis; also recorded: B. fragilis"}, {"measurement": "Activities", "setting": "[4]", "result": "G B"}]}
{"substance": "PF-296 (GAFGMPSIKTNTICGEKGKFISACDAWLSNLK; Peptide with targeting and/or antimicrobial activity)", "values": [{"measurement": "Organism, effect", "setting": "[1]", "result": "B. subtilis (C)"}, {"measurement": "Organism, effect", "setting": "[5]", "result": "S. epidermidis (C)"}]}
{"substance": "PF-297: peptide having multiple activities (ISKGIDDIVYVINKILSIGNIFKIIKRK; Peptide with targeting and/or antimicrobial activity)", "values": [{"measurement": "Organism, effect", "setting": "[1]", "result": "B. subtilis (C)"}, {"measurement": "Organism, effect", "setting": "[5]", "result": "S. epidermidis (C)"}, {"measurement": "Target(s)", "setting": "[3]; [9]", "result": "S. epidermidis; also recorded: B. subtilis; also recorded: B. fragilis"}, {"measurement": "Activities", "setting": "[4]", "result": "G B"}]}
{"substance": "PF-301: peptide having multiple activities (GIVLIGLKLIPLLANVLN; Peptide with targeting and/or antimicrobial activity)", "values": [{"measurement": "Organism, effect", "setting": "[1]", "result": "B. subtilis (C)"}, {"measurement": "Organism, effect", "setting": "[5]", "result": "S. epidermidis (C)"}, {"measurement": "Target(s)", "setting": "[3]; [9]", "result": "C. difficile"}, {"measurement": "Activities", "setting": "[4]", "result": "G B"}]}
{"substance": "PF-318 (MGRHLWNPSYFVATVSENTEEQIRKYINNQKKQVK; Peptide with targeting and/or antimicrobial activity)", "values": [{"measurement": "Organism, effect", "setting": "[1]", "result": "B. subtilis (C)"}, {"measurement": "Organism, effect", "setting": "[5]", "result": "S. epidermidis (C)"}]}
{"substance": "PF-335 (AAYPIEDWSDWYEDFFIMLSNI; Peptide with targeting and/or antimicrobial activity)", "values": [{"measurement": "Organism, effect", "setting": "[1]", "result": "B. subtilis (C)"}, {"measurement": "Organism, effect", "setting": "[5]", "result": "S. epidermidis (C)"}]}
{"substance": "PF-339 (KKIDILINKYMYLSK; Peptide with targeting and/or antimicrobial activity)", "values": [{"measurement": "Organism, effect", "setting": "[1]", "result": "B. subtilis (C)"}, {"measurement": "Organism, effect", "setting": "[5]", "result": "S. epidermidis (C)"}]}
{"substance": "PF-342 (AFSGVYKTLIVYTRRK; Peptide with targeting and/or antimicrobial activity)", "values": [{"measurement": "Organism, effect", "setting": "[1]", "result": "B. subtilis (C)"}, {"measurement": "Organism, effect", "setting": "[5]", "result": "S. epidermidis (C)"}]}
{"substance": "PF-549: peptide having multiple activities (chain 1 TGIGPIARPIEHGLDS; chain 2 TGIGPIARPIEHGLDS; Peptide with targeting and/or antimicrobial activity)", "values": [{"measurement": "Organism, effect", "setting": "[1]", "result": "B. subtilis (D)"}, {"measurement": "Organism, effect", "setting": "[6]", "result": "MRSA (C)"}, {"measurement": "Target(s)", "setting": "[3]; [10]", "result": "E. coli; also recorded: C. albicans; also recorded: S. pneumoniae; also recorded: C. jeikeium"}, {"measurement": "Activities", "setting": "[4]", "result": "G B"}]}
{"substance": "PF-559: peptide having multiple activities (chain 1 SRPGKPGGVSIDVSRDRQDILSNYP; chain 2 SRPGKPGGVSIDVSRDRQDILSNYP; Peptide with targeting and/or antimicrobial activity)", "values": [{"measurement": "Organism, effect", "setting": "[1]", "result": "B. subtilis (C)"}, {"measurement": "Organism, effect", "setting": "[2]", "result": "C. jejuni (A)"}, {"measurement": "Target(s)", "setting": "[3]; [10]", "result": "S. epidermidis; also recorded: M. luteus; also recorded: C. albicans; also recorded: C. jeikeium; also recorded: C. jejuni"}, {"measurement": "Activities", "setting": "[4]", "result": "G B"}]}
{"substance": "PF-560: peptide having multiple activities (chain 1 FGNPFRGFTLAMEADFKKRK; chain 2 FGNPFRGFTLAMEADFKKRK; Peptide with targeting and/or antimicrobial activity)", "values": [{"measurement": "Organism, effect", "setting": "[1]", "result": "B. subtilis (D)"}, {"measurement": "Organism, effect", "setting": "[6]", "result": "MRSA (C)"}, {"measurement": "Organism, effect", "setting": "[7]", "result": "S. pneumoniae (R)"}, {"measurement": "Organism, effect", "setting": "[2]", "result": "C. jejuni (A)"}, {"measurement": "Target(s)", "setting": "[3]; [10]", "result": "S. epidermidis; also recorded: M. luteus; also recorded: E. coli; also recorded: S. pneumoniae; also recorded: C. jeikeium; also recorded: C. jejuni"}, {"measurement": "Activities", "setting": "[4]", "result": "G B"}]}
{"substance": "PF-561 (ESLEADVQAELDTEAAKYPALPASF; Peptide with targeting and/or antimicrobial activity)", "values": [{"measurement": "Organism, effect", "setting": "[1]", "result": "B. subtilis (D)"}, {"measurement": "Organism, effect", "setting": "[6]", "result": "MRSA (M)"}]}
{"substance": "PF-563: peptide having multiple activities (chain 1 RPELDNELDVVQNSASLDKLQASYN; chain 2 RPELDNELDVVQNSASLDKLQASYN; Peptide with targeting and/or antimicrobial activity)", "values": [{"measurement": "Organism, effect", "setting": "[1]", "result": "B. subtilis (D)"}, {"measurement": "Organism, effect", "setting": "[7]", "result": "S. pneumoniae (H)"}, {"measurement": "Organism, effect", "setting": "[2]", "result": "C. jejuni (H)"}, {"measurement": "Target(s)", "setting": "[3]; [10]", "result": "S. epidermidis; also recorded: M. luteus; also recorded: C. jeikeium"}, {"measurement": "Activities", "setting": "[4]", "result": "G B"}]}
{"substance": "PF-565 (RAEAEAQRQAEADAKRKAEEAARL; Peptide with targeting and/or antimicrobial activity)", "values": [{"measurement": "Organism, effect", "setting": "[1]", "result": "B. subtilis (D)"}, {"measurement": "Organism, effect", "setting": "[6]", "result": "MRSA (C)"}]}
{"substance": "PF-572: peptide having multiple activities (chain 1 WRASKGLPGFKAG; chain 2 WRASKGLPGFKAG; Peptide with targeting and/or antimicrobial activity)", "values": [{"measurement": "Organism, effect", "setting": "[1]", "result": "B. subtilis (D)"}, {"measurement": "Organism, effect", "setting": "[7]", "result": "S. pneumoniae (R)"}, {"measurement": "Target(s)", "setting": "[3]; [10]", "result": "S. epidermidis; also recorded: M. luteus; also recorded: E. coli; also recorded: S. pneumoniae; also recorded: C. jeikeium"}, {"measurement": "Activities", "setting": "[4]", "result": "G B"}]}
{"substance": "PF-655: peptide having multiple activities (chain 1 DAPCFDDQFGDLKCQMC; chain 2 DAPCFDDQFGDLKCQMC; Peptide with targeting and/or antimicrobial activity)", "values": [{"measurement": "Organism, effect (morphology, biofilm and growth disruption)", "setting": "[1]", "result": "B. subtilis (H)"}, {"measurement": "Organism, effect (morphology, biofilm and growth disruption)", "setting": "[6]", "result": "MRSA (M)"}, {"measurement": "Organism, effect (morphology, biofilm and growth disruption)", "setting": "[5]", "result": "S. epidermidis (R)"}, {"measurement": "Organism, effect (morphology, biofilm and growth disruption)", "setting": "[7]", "result": "S. pneumoniae (H)"}, {"measurement": "Target(s) (microorganisms bound by the targeting peptide)", "setting": "[3]", "result": "M. smegmatis"}, {"measurement": "Activities", "setting": "[4]", "result": "G B"}]}
{"substance": "PF-659 (chain 1 TVIST; chain 2 TVIST; Peptide with targeting and/or antimicrobial activity)", "values": [{"measurement": "Organism, effect (morphology, biofilm and growth disruption)", "setting": "[1]", "result": "B. subtilis (H)"}, {"measurement": "Organism, effect (morphology, biofilm and growth disruption)", "setting": "[6]", "result": "MRSA (R)"}, {"measurement": "Organism, effect (morphology, biofilm and growth disruption)", "setting": "[5]", "result": "S. epidermidis (M)"}, {"measurement": "Organism, effect (morphology, biofilm and growth disruption)", "setting": "[7]", "result": "S. pneumoniae (C)"}, {"measurement": "Target(s) (microorganisms bound by the targeting peptide)", "setting": "[3]", "result": "Mycobacteria spp"}]}
{"substance": "SIGSMIGMYSFRHKTKHIKFTFGIPFILFLQFLLVYFYILK [PF-319]", "values": [{"measurement": "Organism, effect", "setting": "[1]", "result": "B. subtilis (C)"}, {"measurement": "Organism, effect", "setting": "[5]", "result": "S. epidermidis (C)"}, {"measurement": "Target(s)", "setting": "[3]; [9]", "result": "S. epidermidis; also recorded: B. subtilis; also recorded: C. difficile"}, {"measurement": "Activities", "setting": "[4]", "result": "G B"}]}
